Source: PubChem BioAssay AID1963962 (Molecular Pharmacology Branch, DTP, NCI, 2024)

Tested on: 967376-340-R-J2-PDC multicell spheroid viability
Experiment: Anticancer human tumor 967376-340-R-J2-PDC patient-derived colon adenocarcinoma cell line growth inhibition [PI3K]
Details: for IC50: curve of first compound; for viability, T/C: stronger effect = lower value
Procedure, shortened: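 Targeted small molecules plus PI3K inhibitors, half-log dose series from Cmax (default top 10 microM), were applied to heterotypic spheroids of cancer cells with HUVEC and MSCs. Viability indicated growth inhibition.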
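Also: spheroids exposed to agents for 7 days before read-out.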
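For viability, T/C in this document: luminescence used as surrogate of cell viability.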

Work on `Cn1cnc2c(F)c(Nc3ccc(Br)cc3Cl)c(C(=O)NOCCO)cc21` + COc1c(OCCCN2CCOCC2)ccc2c3n(c(=NC(=O)c4cnc(N)nc4)nc12)CCN3 yielded an IC50 (second compound 0.00316 µM) of 2850 nM, an IC50 (second compound 0.01 µM) of 2080 nM and an IC50 (second compound 0.0316 µM) of 1010 nM. For the same compound, the IC50 (second compound 0.1 µM) was 332 nM, the IC50 (second compound 0.316 µM) was less than 9.49 nM and the IC50 (second compound 1 µM) was less than 9.49 nM. It also gave a viability, T/C (second compound 0.00316 µM, first compound 0.00949 µM) of 85.7%, a viability, T/C (second compound 0.00316 µM, first compound 0.03 µM) of 79.2% and a viability, T/C (second compound 0.00316 µM, first compound 0.0949 µM) of 87.5%. For the same compound, the viability, T/C (second compound 0.00316 µM, first compound 0.3 µM) was 67.9%, the viability, T/C (second compound 0.00316 µM, first compound 0.949 µM) was 80.5% and the viability, T/C (second compound 0.00316 µM, first compound 3 µM) was 48.7%. It also gave a viability, T/C (second compound 0.01 µM, first compound 0.00949 µM) of 106%, a viability, T/C (second compound 0.01 µM, first compound 0.03 µM) of 86.6% and a viability, T/C (second compound 0.01 µM, first compound 0.0949 µM) of 66.9%. For the same compound, the viability, T/C (second compound 0.01 µM, first compound 0.3 µM) was 79.9%, the viability, T/C (second compound 0.01 µM, first compound 0.949 µM) was 87% and the viability, T/C (second compound 0.01 µM, first compound 3 µM) was 33.4%. It also gave a viability, T/C (second compound 0.0316 µM, first compound 0.00949 µM) of 80.1%, a viability, T/C (second compound 0.0316 µM, first compound 0.03 µM) of 61.2% and a viability, T/C (second compound 0.0316 µM, first compound 0.0949 µM) of 51.7%. The viability, T/C (second compound 0.0316 µM, first compound 0.3 µM) was 53.2%, the viability, T/C (second compound 0.0316 µM, first compound 0.949 µM) was 57.6% and the viability, T/C (second compound 0.0316 µM, first compound 3 µM) was 15.3%. For the same compound, the viability, T/C (second compound 0.1 µM, first compound 0.00949 µM) was 49.2%, the viability, T/C (second compound 0.1 µM, first compound 0.03 µM) was 59.9% and the viability, T/C (second compound 0.1 µM, first compound 0.0949 µM) was 49.6%. It also gave a viability, T/C (second compound 0.1 µM, first compound 0.3 µM) of 53.1%, a viability, T/C (second compound 0.1 µM, first compound 0.949 µM) of 19.8% and a viability, T/C (second compound 0.1 µM, first compound 3 µM) of 1.95%. It also gave a viability, T/C (second compound 0.316 µM, first compound 0.00949 µM) of 28.5%, a viability, T/C (second compound 0.316 µM, first compound 0.03 µM) of 65.1% and a viability, T/C (second compound 0.316 µM, first compound 0.0949 µM) of 46.9%. It also gave a viability, T/C (second compound 0.316 µM, first compound 0.3 µM) of 23.9%, a viability, T/C (second compound 0.316 µM, first compound 0.949 µM) of 1.63% and a viability, T/C (second compound 0.316 µM, first compound 3 µM) of 1.2%. It also gave a viability, T/C (second compound 1 µM, first compound 0.00949 µM) of 44.2%, a viability, T/C (second compound 1 µM, first compound 0.03 µM) of 25.5% and a viability, T/C (second compound 1 µM, first compound 0.0949 µM) of 32.3%. The viability, T/C (second compound 1 µM, first compound 0.3 µM) was 16.7%, the viability, T/C (second compound 1 µM, first compound 0.949 µM) was 1.19% and the viability, T/C (second compound 1 µM, first compound 3 µM) was 1.28%.
`Cn1nccc1Nc1nccc(-c2ccn(C(CO)c3ccc(Cl)c(F)c3)c(=O)c2)n1` (centres undefined) + CC(Nc1ncnc2nc[nH]c12)c1cc2cccc(Cl)c2c(=O)n1-c1ccccc1 was tested, and the IC50 (second compound 0.0316 µM) was greater than 10000 nM, the IC50 (second compound 0.1 µM) was greater than 10000 nM and the IC50 (second compound 0.316 µM) was greater than 10000 nM. It also gave an IC50 (second compound 1 µM) greater than 10000 nM, an IC50 (second compound 3.16 µM) greater than 10000 nM and an IC50 (second compound 10 µM) greater than 10000 nM. For the same compound, the viability, T/C (second compound 0.0316 µM, first compound 0.0316 µM) was 97.2%, the viability, T/C (second compound 0.0316 µM, first compound 0.1 µM) was 115% and the viability, T/C (second compound 0.0316 µM, first compound 0.316 µM) was 101%. It also gave a viability, T/C (second compound 0.0316 µM, first compound 1 µM) of 102%, a viability, T/C (second compound 0.0316 µM, first compound 3.16 µM) of 101% and a viability, T/C (second compound 0.0316 µM, first compound 10 µM) of 114%. For the same compound, the viability, T/C (second compound 0.1 µM, first compound 0.0316 µM) was 103%, the viability, T/C (second compound 0.1 µM, first compound 0.1 µM) was 105% and the viability, T/C (second compound 0.1 µM, first compound 0.316 µM) was 95.9%. It also gave a viability, T/C (second compound 0.1 µM, first compound 1 µM) of 128%, a viability, T/C (second compound 0.1 µM, first compound 3.16 µM) of 128% and a viability, T/C (second compound 0.1 µM, first compound 10 µM) of 106%. It also gave a viability, T/C (second compound 0.316 µM, first compound 0.0316 µM) of 107%, a viability, T/C (second compound 0.316 µM, first compound 0.1 µM) of 115% and a viability, T/C (second compound 0.316 µM, first compound 0.316 µM) of 114%. The viability, T/C (second compound 0.316 µM, first compound 1 µM) was 76.1%, the viability, T/C (second compound 0.316 µM, first compound 3.16 µM) was 104% and the viability, T/C (second compound 0.316 µM, first compound 10 µM) was 110%. The viability, T/C (second compound 1 µM, first compound 0.0316 µM) was 96.2%, the viability, T/C (second compound 1 µM, first compound 0.1 µM) was 93.3% and the viability, T/C (second compound 1 µM, first compound 0.316 µM) was 87.8%. For the same compound, the viability, T/C (second compound 1 µM, first compound 1 µM) was 89%, the viability, T/C (second compound 1 µM, first compound 3.16 µM) was 99% and the viability, T/C (second compound 1 µM, first compound 10 µM) was 96.3%. It also gave a viability, T/C (second compound 3.16 µM, first compound 0.0316 µM) of 87.5%, a viability, T/C (second compound 3.16 µM, first compound 0.1 µM) of 85.3% and a viability, T/C (second compound 3.16 µM, first compound 0.316 µM) of 80.1%. For the same compound, the viability, T/C (second compound 3.16 µM, first compound 1 µM) was 89.3%, the viability, T/C (second compound 3.16 µM, first compound 3.16 µM) was 99.7% and the viability, T/C (second compound 3.16 µM, first compound 10 µM) was 81.4%. It also gave a viability, T/C (second compound 10 µM, first compound 0.0316 µM) of 95.7%, a viability, T/C (second compound 10 µM, first compound 0.1 µM) of 73.4% and a viability, T/C (second compound 10 µM, first compound 0.316 µM) of 86.3%. The viability, T/C (second compound 10 µM, first compound 1 µM) was 86.7%, the viability, T/C (second compound 10 µM, first compound 3.16 µM) was 76.2% and the viability, T/C (second compound 10 µM, first compound 10 µM) was 75.3%.
